Results taken from publication PMC12384454, “Study of the Lipophilicity of Tetracyclic Anticancer Azaphenothiazines” (Biomolecules, 2025).
Entries after “also recorded” stand apart in the source; their conditions may differ. Read-outs that look alike come from different tables or passages of the source.

How the values were obtained:
MDA = system: MDA; set-up: method as in earlier work; conditions: cited from earlier work; for IC50: MTT assay; for SI MDA: selectivity index vs HaCaT
HCT-116 cells = conditions: cited from earlier work; for IC50: MTT assay, read-out: IC50 HCT116; for SI HCT116: selectivity index vs HaCaT
MiaPaCa-2 = system: MiaPaCa-2; set-up: method as in earlier work; conditions: cited from earlier work; for IC50: MTT assay; for SI MiaPaCa-2: selectivity index vs HaCaT
A549 cells = conditions: cited from earlier work; for IC50: MTT assay; for SI A549: selectivity index vs HaCaT
HaCaT cells = conditions: cited from earlier work; for IC50: MTT assay, normal cells; for cytotoxic effects on HaCaT cells: in words
[1] = RP-TLC lipophilicity (RM0, log PTLC, C0), silica gel RP-18F254, acetone/TRIS buffer pH 7.4; type: physicochemical; conditions: for RM0: RP-TLC, RM extrapolated to 0% acetone, TRIS buffer pH 7.4; for C0: chromatography hydrophobic index, C0 = −RM0/b; for chromatographic logP / log PTLC: from RM0 by calibration curve log PTLC = 1.2862RM0 + 0.2061
Method: In connection with this, in the next stage of the study, the parameters of lipophilicity of the tested compounds were determined experimentally. […] This technique was used to determine the retardation coefficient Rf for each compound in eight mobile phases consisting of acetone and Tris buffer in different volume ratios (50–85% acetone). Next, the Rf values were converted to the chromatographic parameter RM, and then the obtained values were extrapolated to 0% acetone content in the mobile phase obtaining the lipophilicity parameter RM0 (Table S2).
The parameter RM0 can be correlated to an experimental log P lipophilicity parameter of chemical molecules (log PTLC) by applying a calibration curve. The calibration curve was obtained by determining the Rf value for standard substances with a known log Plit value using the RP-TLC method under conditions analogous to those of the tested substances. After calculating the RM and RM0 values, the dependence of the log Plit parameter on the experimentally obtained RM0 values for standards was determined (Table 2).
The chromatographic parameter of lipophilicity was determined by means of Soczewiński–Wachtmeister’s method. […] The acetone ratio was 50 to 85% (v/v) in increments of 5%. The tested compounds in the form of an ethanol solution at a concentration of 2.0 mg/mL each were spotted on chromatographic plates at an amount of 2 µL each. Before analysis, the chromatography chamber (Camag, Switzerland) was saturated with the mobile phase (50 mL) for 30 min. After development at 20 ± 2 °C and subsequent drying, the chromatograms were observed under UV light at 254 nm by using a Camag UV lamp (Muttenz, Switzerland). Each analysis was performed in triplicate. The average value of the retardation factor (Rf) was used to calculate RM using Equation (1):(1) RM=log(1−Rf/Rf)
In addition, the chromatographic parameter of lipophilicity RM0 and b value allowed the determination of the chromatography hydrophobic index C0 by using the following formula:(3) C0=− RM0/b

PC3 = system: PC3; set-up: method as in earlier work; conditions: cited from earlier work; for IC50: MTT assay; for SI PC3: selectivity index vs HaCaT
[2] = system: standard strains of staphylococci; conditions: cited from earlier work; for antibacterial activity: mainly against standard strains of staphylococci
[3] = standard for calibration curve; cited from earlier work

SMILES | IC50 (MDA) [µM] | SI MDA (MDA) | IC50 (HCT-116 cells) [µM] | SI HCT116 (HCT-116 cells) | IC50 (MiaPaCa-2) [µM] | SI MiaPaCa-2 (MiaPaCa-2) | IC50 (A549 cells) [µM] | SI A549 (A549 cells) | IC50 (HaCaT cells) [µM] | RM0 [1] | C0 [1] | chromatographic logP [1] | IC50 (PC3) [µM] | SI PC3 (PC3) | antibacterial activity [2] | SI A549 (A549 cells; listed as doxorubicin) | log Plit [3] | log PTLC [1] | MIC ([2]; standard strains) [µg/mL] | cytotoxic effects on HaCaT cells (HaCaT cells)
Clc1ccc2c(c1)N(CCN1CCCC1)c1nc3ccccc3cc1S2 [compound 3] | 77.1 ± 1.6 | 1.3 | 17.5 ± 1.4 | 5.7 | 57.4 ± 9.6 | 1.7 | 17.4 ± 4.1 | 5.7 | < 100 | 3.96 | 73.88 | 5.29 | 77.1 ± 9.4 | 1.3 | moderate antibacterial activity |  |  |  |  | 
CN(C)CCCN1c2ccccc2Sc2ccc(Cl)cc21 [compound 18, chlorpromazine, reference compound] |  |  |  |  |  |  |  |  |  | 3.41 | 67.79 | 4.59 |  |  |  |  |  |  |  | 
O=C(O)c1ccccc1 [benzoic acid, reference compound] |  |  |  |  |  |  |  |  |  | 1.16 |  |  |  |  |  |  |  |  |  | 
COc1cccc2c1C(=O)c1c(O)c3c(c(O)c1C2=O)C[C@@](O)(C(=O)CO)C[C@@H]3O[C@H]1C[C@H](N)[C@H](O)[C@H](C)O1 [DX, doxorubicin, reference compound] | 0.8 ± 0.1 | 0.15 | 0.59 ± 0.02 | 0.5 | 0.6 ± 0.2 | 0.14 | 0.6 ± 0.2 | 0.14 | 0.3 ± 0.1 |  |  |  | 0.8 ± 0.1 | 0.15 |  | 0.14–0.15 |  |  |  | 
CC(=O)NCCCN1c2cc(Cl)ccc2Sc2cc3ccccc3nc21 [compound 7] | 76.6 ± 8.9 | 1.3 |  |  |  |  | 24.6 ± 6.1 | 4.1 | < 100 | 2.72 | 76.19 | 3.7 |  |  |  |  |  |  |  | 
CC(=O)Nc1ccccc1 [acetanilide, reference compound] |  |  |  |  |  |  |  |  |  | 0.78 |  |  |  |  |  |  | 1.21 [35] | 1.21 |  | 
c1ccc2cc3ccccc3cc2c1 [anthracene, reference compound] |  |  |  |  |  |  |  |  |  |  |  |  |  |  |  |  | 4.45 [36] |  |  | 
Cc1ccc(S(=O)(=O)NCCCN2c3cc(Cl)ccc3Sc3cc4ccccc4nc32)cc1 [compound 11] | < 100 | 1.0 |  |  |  |  |  | 1.0 | < 100 | 4.59 | 79.96 | 6.1 |  |  |  |  |  |  |  | 
CCN(CC)CCN1c2cc(Cl)ccc2Sc2cc3ccccc3nc21 [compound 1] | < 100 | 1.0 |  |  |  |  | 27.2 ± 8.4 | 3.7 | < 100 | 3.98 | 69.58 | 5.33 |  |  | moderate antibacterial activity |  |  |  |  | 
CC(=O)NCCCCN1c2cc(Cl)ccc2Sc2cc3ccccc3nc21 [compound 13] | < 100 | 1.0 |  |  |  |  | 82.3 ± 6.2 | 1.2 | < 100 | 3.11 | 77.17 | 4.21 |  |  |  |  |  |  |  | 
O=C(NCCCl)NCCCCN1c2cc(Cl)ccc2Sc2cc3ccccc3nc21 [compound 15] | 7.4 ± 1.2 | 0.1 | 11.3 ± 2.2 | 0.1 | 6.4 ± 2.4 | 0.2 | 6.98 |  | 1.1 ± 0.3 | 3.59 | 76.22 | 4.82 | 76.6 ± 9.8 | 0.1 | moderate antibacterial activity |  |  |  | 2 to 8 | 
CCOC(=O)NCCCCN1c2cc(Cl)ccc2Sc2cc3ccccc3nc21 [compound 14] | < 100 | 1.0 |  |  |  |  |  | 1.0 | < 100 | 4.06 | 82.86 | 5.43 |  |  |  |  |  |  |  | 
O=C1c2ccccc2C(=O)N1CCCCN1c2cc(Cl)ccc2Sc2cc3ccccc3nc21 [compound 12] |  |  |  |  |  |  |  |  |  | 4.41 | 85.47 | 5.88 |  |  |  |  |  |  |  | 
Clc1ccc2c(c1)N(CCN1CCCCC1)c1nc3ccccc3cc1S2 [compound 4] | < 100 | 1.0 |  |  |  |  | 63.8 ± 8.5 | 1.6 | < 100 | 4.01 | 73.04 | 5.36 |  |  |  |  |  |  |  | 
O=C1c2ccccc2C(=O)N1CCCN1c2cc(Cl)ccc2Sc2cc3ccccc3nc21 [compound 6] |  |  |  |  |  |  |  |  |  | 4.12 | 82.90 | 5.5 |  |  |  |  |  |  |  | 
Clc1ccc(C(c2ccc(Cl)cc2)C(Cl)(Cl)Cl)cc1 [p,p’-DDT, reference compound] |  |  |  |  |  |  |  |  |  | 4.69 |  |  |  |  |  |  | 6.38 [37] | 6.24 |  | 
CS(=O)(=O)NCCCN1c2cc(Cl)ccc2Sc2cc3ccccc3nc21 [compound 10] | < 100 | 1.0 |  |  |  |  |  | 1.0 | < 100 | 3.37 | 76.24 | 4.53 |  |  |  |  |  |  |  | 
CN1CCCCC1CCN1c2cc(Cl)ccc2Sc2cc3ccccc3nc21 (stereo not shown) [compound 5] | 16.7 ± 1.1 | 0.9 | 7.7 | 1.6 | 24.3 ± 3.5 | 0.5 | 16 ± 4.2 | 1 | 12.7 ± 1.9 | 4.20 | 84.51 |  | 16.7 ± 1.8 | 0.7 |  |  |  | 5.61 |  | 
CN(C)CCCN1c2cc(Cl)ccc2Sc2cc3ccccc3nc21 [compound 2] | 52.1 ± 2.7 | 1.2 | 1.6 |  | 40.2 ± 0.7 | 1.6 | 8.2 | 7.6 | 62.3 ± 2.5 | 3.77 | 70.60 |  | 52.1 ± 7.1 | 1.2 | moderate antibacterial activity |  |  | 5.05 |  | no cytotoxic effects
O=C(NCCCl)NCCCN1c2cc(Cl)ccc2Sc2cc3ccccc3nc21 [compound 9] | 48.6 ± 7.3 | 2.0 | 10.4 ± 1.6 | 8.8 | 23.2 ± 2.7 | 4.3 | 9.3 ± 1.2 | 10.7 | < 100 | 3.47 | 76.43 | 4.66 | 34.8 ± 9.8 | 2.8 | moderate antibacterial activity |  |  |  |  | 
CCOC(=O)NCCCN1c2cc(Cl)ccc2Sc2cc3ccccc3nc21 [compound 8] | < 100 | 1.0 |  |  |  |  | 86.6 ± 0.8 | 1.1 | < 100 | 3.76 | 81.74 |  |  |  |  |  |  | 5.04 |  | 
Cc1ccc(S(=O)(=O)NCCCCN2c3cc(Cl)ccc3Sc3cc4ccccc4nc32)cc1 [compound 17] | < 100 | 1.0 |  |  |  | 1.0 | 9.45 | 10.5 | < 100 | 4.68 | 80.41 | 6.22 | 48.6 ± 4.7 | 2.0 |  |  |  |  |  | 
CS(=O)(=O)NCCCCN1c2cc(Cl)ccc2Sc2cc3ccccc3nc21 [compound 16] | < 100 | 0.2 | 0.7 | 143 | 98.4 ± 5.6 | 1.0 | 30.5 ± 8.3 | 3.3 | < 100 | 3.65 | 76.36 | 4.9 |  | 1.0 |  |  |  |  |  | no cytotoxic effects; also recorded: lack of toxicity to non-cancer cells
